Read-outs that look alike come from different tables or passages of the source. Marks after values point to notes of the source that are not given here.
Legend:
[1] = Plasma protein binding by ultracentrifugation; type: in vitro ADME, human; details: unbound fraction in plasma
CYP2D6 mRNA [2] = test: CYP2D6 mRNA in plated human hepatocytes; details: for mean CYP2D6 mRNA levels, % of vehicle treated cells: three donors, 72 hours
CYP2D6 mRNA [3] = test: CYP2D6 mRNA downregulation in HepG2 cells; details: for EC50: read-out: EC50 of CYP2D6 mRNA downregulation, 72 hrs
[4] = system: CYP2D6 protein expression; test: CYP2D6 protein expression in HepG2 cells; details: 72 hrs; for effect on CYP2D6 protein expression: erythrohydrobupropion 5 μM, threohydrobupropion 20 μM, R,R-OH-bupropion 20 μM
CYP2D6 [5] = target: T1, CYP2D6 (Homo sapiens, UniProt P10635); test: CYP2D6 activity in plated human hepatocytes; details: after 72 hr treatment
[6] = Steady state plasma concentrations in subjects on chronic bupropion XL; details: for Mean [I] (Range, n=5): 5 subjects, normalized to 300 mg/day bupropion dose
[7] = Media concentrations of bupropion and metabolites in plated human hepatocytes; details: for Cmedia at 72 hr: 1 hr incubation after 71 hours treatment; for Cmedia at 1 hr: after 1 hr incubation without pretreatment; for concentration of metabolite formed in bupropion treated cells: plated human hepatocytes treated with bupropion 2.5 μM
[8] = Partitioning into human suspension hepatocytes; details: 1 μM, 30 min, total concentrations
CYP2D6 [9] = target: T1, CYP2D6; test: Static prediction of in vivo reversible CYP2D6 inhibition; details: for share of the predicted CYP2D6 inhibition in vivo caused by the compound: reversible inhibition only
CYP2D6 [10] = target: T1, CYP2D6; details: from HepG2 Emax/EC50 and circulating concentrations, 300 mg/day bupropion
CYP2D6 [11] = target: T1, CYP2D6; test: Reversible CYP2D6 inhibition in human liver microsomes; details: for effect on CYP2D6 activity: 50 μM test concentration, HLM
CYP2D6 [12] = details: cited from earlier work
CYP3A4 mRNA = CYP3A4 mRNA in plated human hepatocytes; type: cell-based; details: 72 hours
[13] = cited from earlier work
[14] = female, human, 2.5 μM
CYP2D6 mRNA [15] = test: in vitro; details: human
CYP2D6 [16] = target: T1, CYP2D6; test: CYP2D6 inhibition in human suspension hepatocytes

T1 sequence (P10635 whole entry): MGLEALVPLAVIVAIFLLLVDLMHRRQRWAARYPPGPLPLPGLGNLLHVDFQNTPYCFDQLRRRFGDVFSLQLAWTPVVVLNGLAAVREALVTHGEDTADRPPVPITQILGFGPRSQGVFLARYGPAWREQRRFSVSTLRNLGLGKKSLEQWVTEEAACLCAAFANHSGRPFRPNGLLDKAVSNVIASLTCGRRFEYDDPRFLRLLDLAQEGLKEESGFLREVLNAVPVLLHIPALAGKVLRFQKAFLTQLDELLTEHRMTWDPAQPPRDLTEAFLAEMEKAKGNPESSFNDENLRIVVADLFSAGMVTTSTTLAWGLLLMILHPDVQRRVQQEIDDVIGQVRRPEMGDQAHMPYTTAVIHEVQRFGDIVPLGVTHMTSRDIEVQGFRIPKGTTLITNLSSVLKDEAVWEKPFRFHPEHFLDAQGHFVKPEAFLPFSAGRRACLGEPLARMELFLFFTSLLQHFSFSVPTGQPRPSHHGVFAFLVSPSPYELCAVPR

C[C@@H]1NC(C)(C)CO[C@@]1(O)c1cccc(Cl)c1 [S,S-OH-bupropion]
fu,p (S.D. n=3) [1]: 0.5±0.1 | % decrease in CYP2D6 mRNA at 72 hrs (CYP2D6 mRNA [2]): 74% | mean CYP2D6 mRNA levels, % of vehicle treated cells (CYP2D6 mRNA [2]): 26% | maximum decrease in CYP2D6 mRNA (CYP2D6 mRNA [3]; 72 hrs): 85–88% | EC50 (CYP2D6 mRNA [3]): 200 nM | downregulation of CYP2D6 protein expression ([4]; 5 μM, western blot): > 50% | Apparent Percent Inhibition at 72 hrs (CYP2D6 [5]): 60 ± 11% | circulating concentration fold higher than S-bupropion ([6]; steady state plasma): ~3 fold | circulating concentration fold lower than threohydrobupropion ([6]; steady state plasma): about 6 fold | Mean [I] (Range, n=5) ([6]; steady state plasma): 0.39 ^* (0.26–0.67) μM | Cmedia at 72 hr ([7]; plated human hepatocytes): 1.5 ± 0.2 µM | Cmedia at 1 hr ([7]; plated human hepatocytes): 1.3 ± 0.1 µM

C[C@H]1NC(C)(C)CO[C@]1(O)c1cccc(Cl)c1 [OH-bupropion, hydroxybupropion]
cell concentration fold higher than medium [8]: 11 fold | concentration of metabolite formed in bupropion treated cells [7]: 120 nM

CC(NC(C)(C)C)C(O)c1cccc(Cl)c1 (stereo not drawn) [Erythro-hydrobupropion, erythrohydrobupropion]
fu,p (S.D. n=3) [1]: 0.7±0.1 | share of the predicted CYP2D6 inhibition in vivo caused by the compound (CYP2D6 [9]): 9% | % decrease in CYP2D6 mRNA at 72 hrs (CYP2D6 mRNA [2]): 80% | mean CYP2D6 mRNA levels, % of vehicle treated cells (CYP2D6 mRNA [2]): 20% | cell concentration fold higher than medium [8]: 9 fold | maximum decrease in CYP2D6 mRNA (CYP2D6 mRNA [3]; 72 hrs): 85% | EC50 (CYP2D6 mRNA [3]): 1110 nM | effect on CYP2D6 protein expression [4]: slightly less effective | Apparent Percent Inhibition at 72 hrs (CYP2D6 [5]): 93 ± 1% | circulating concentration fold higher than S-bupropion ([6]; steady state plasma): ~3 fold | circulating concentration fold lower than threohydrobupropion ([6]; steady state plasma): about 6 fold | Mean [I] (Range, n=5) ([6]; steady state plasma): 0.29 (0.19–0.41) μM | concentration of metabolite formed in bupropion treated cells [7]: 80 nM | Cmedia at 72 hr ([7]; plated human hepatocytes): 2.1 ± 0.3 µM | Cmedia at 1 hr ([7]; plated human hepatocytes): 1.6 ± 0.1 µM | predicted decrease in CYP2D6 mRNA if compound acted alone at steady state (CYP2D6 [10]): 18% | fold more potent CYP2D6 inhibitor than threohydrobupropion (CYP2D6 [11]; based on IC50 values in HLM): ~10 fold

COc1ccc(C(CN(C)C)C2(O)CCCCC2)cc1 (stereo not shown) [venlafaxine]
fraction metabolized by CYP2D6 (fm) (CYP2D6 [12]): 80%

C[C@H]1NC(C)(C)CO[C@]1(O)c1cccc(Cl)c1 [R,R-OH-bupropion]
fu,p (S.D. n=3) [1]: 0.5±0.1 | fold higher I/Ki than S,S-OH-bupropion (CYP2D6 [9]): 36 fold | share of the predicted CYP2D6 inhibition in vivo caused by the compound (CYP2D6 [9]): 65% | change in CYP3A4 mRNA (CYP3A4 mRNA): significantly increased CYP3A4 mRNA | R,R-OH-bupropion to S,S-OH-bupropion ratio ([13]; single dose AUCs): 44–65 | circulating concentration fold higher than bupropion and S,S-OH-bupropion ([13]; single dose of bupropion): up to 65 fold | % decrease in CYP2D6 mRNA at 72 hrs (CYP2D6 mRNA [2]): 72% | mean CYP2D6 mRNA levels, % of vehicle treated cells (CYP2D6 mRNA [2]): 28% | effect on CYP2D6 mRNA (CYP2D6 mRNA [3]; 5-50 μM, 72 hrs): weakest effect | effect on CYP2D6 protein expression [4]: no effect | Apparent Percent Inhibition at 72 hrs (CYP2D6 [5]): 83 ± 3% | steady state concentration ratio R,R-OH-bupropion / S,S-OH-bupropion ([6]; steady state plasma): 13 fold | Mean [I] (Range, n=5) ([6]; steady state plasma): 5.0 (3.0–9.4) μM | Cmedia at 72 hr ([7]; plated human hepatocytes): 19 ± 3 µM | Cmedia at 1 hr ([7]; plated human hepatocytes): 16 ± 1 µM | reduction of media concentration at the end of the pretreatment ([7]; plated human hepatocytes, versus initial media concentration added): 33% | fold more potent CYP2D6 inhibitor than S,S-OH-bupropion (CYP2D6 [11]; based on IC50 values in HLM): 3 fold

C[C@H](NC(C)(C)C)C(=O)c1cccc(Cl)c1 [S-Bupropion, S-bupropion, reference compound]
fu,p (S.D. n=3) [1]: 0.6±0.1 | Mean [I] (Range, n=5) ([6]; steady state plasma): 0.08 ^* (0.02–0.11) μM

C[C@H](NC(C)(C)C)[C@@H](O)c1cccc(Cl)c1 [Threo-hydrobupropion, threohydrobupropion]
fu,p (S.D. n=3) [1]: 1.0±0.1 | share of the predicted CYP2D6 inhibition in vivo caused by the compound (CYP2D6 [9]): approximately 21% | % decrease in CYP2D6 mRNA at 72 hrs (CYP2D6 mRNA [2]): 82% | mean CYP2D6 mRNA levels, % of vehicle treated cells (CYP2D6 mRNA [2]): 18% | cell concentration fold higher than medium [8]: 11 fold | maximum decrease in CYP2D6 mRNA (CYP2D6 mRNA [3]; 72 hrs): 78% | fold less potent in downregulating CYP2D6 mRNA than the other compounds (CYP2D6 mRNA [3]; based on EC50): 10–50 fold | EC50 (CYP2D6 mRNA [3]): 9950 nM | Apparent Percent Inhibition at 72 hrs (CYP2D6 [5]): 92 ± 2% | steady state concentration fold higher than erythrohydrobupropion ([6]; average steady state plasma): 7.2 fold | Mean [I] (Range, n=5) ([6]; steady state plasma): 2.1 (1.1–3.5) μM | concentration of metabolite formed in bupropion treated cells [7]: 1400 nM | Cmedia at 72 hr ([7]; plated human hepatocytes): 8.2 ± 1.4 µM | Cmedia at 1 hr ([7]; plated human hepatocytes): 7.1 ± 0.6 µM | predicted decrease in CYP2D6 mRNA if compound acted alone at steady state (CYP2D6 [10]): 14%

C[C@@H](NC(C)(C)C)C(=O)c1cccc(Cl)c1 [R-Bupropion, R-bupropion, reference compound]
fu,p (S.D. n=3) [1]: 0.5±0.1 | Mean [I] (Range, n=5) ([6]; steady state plasma): 0.22 (0.05–0.34) μM

CC(NC(C)(C)C)C(O)c1ccc(O)c(Cl)c1 (stereo not drawn) [threo-4′OH-bupropion, threo-4′-OH-hydrobupropion]
effect on CYP2D6 activity (CYP2D6 [11]): no effect

CNCCCN1c2ccccc2CCc2ccccc21 [desipramine]
fraction metabolized by CYP2D6 (fm) (CYP2D6 [12]): 90%

CC(NC(C)(C)C)C(=O)c1cccc(Cl)c1 (stereo not shown) [Bupropion]
reduction of media concentration at the end of the pretreatment ([14]; 71 h): 93% | Cmedia at 72 hr ([14]; 72 h): 1.7 ± 0.5 µM | EC50 at 72 h (CYP2D6 mRNA [15]): 210 nM | IC50 (CYP2D6 [16]): 13000 nM

C[C@@H](NC(C)(C)C)C(=O)c1ccc(O)c(Cl)c1 [4′OH-bupropion, 4′-OH-bupropion]
Mean [I] (Range, n=5) ([6]; steady state plasma): 0.01 µM | effect on CYP2D6 activity (CYP2D6 [11]): no effect
